What was measured:
HGGX42 [1] = H3.3 G34R paediatric high-grade glioma line; assay: maximal growth inhibition (yFin) relative to DMSO / staurosporine; higher = more efficacious
Summary of the method: (§1)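 Patient-derived pHGG/DIPG cell lines and astrocyte controls were grown on 1% Geltrex-coated 384-well plates and exposed by pin tool to a 10-point threefold dilution series (mean top concentration 35 μM), in triplicate. Exposure was 7 days (iAstro 3 days) at 37 °C, 5% CO2. CellTiter-Glo luminescence was log2-transformed, normalised per plate to % activity between negative (solvent) and positive control wells, and pooled. EC50 and maximal response (yFin) come from the lowest-AICc three- or four-parameter log-logistic fit.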

SUDIPGIV [2] = diffuse intrinsic pontine glioma line; assay: as above
Summary of the method: as §1

DIPGX7 [3] = H3.3 K27M diffuse intrinsic pontine glioma line; assay: as above
Summary of the method: as §1

SUDIPGXIII [4] = diffuse intrinsic pontine glioma line; assay: as above
Summary of the method: as §1

DIPGX29 [5] = H3.3 K27M diffuse intrinsic pontine glioma line; assay: as above
Summary of the method: as §1

SUDIPGXXI [6] = diffuse intrinsic pontine glioma line; assay: as above
Summary of the method: as §1

DIPGX9 [7] = diffuse intrinsic pontine glioma line; assay: as above
Summary of the method: as §1

HGGX39 [8] = paediatric high-grade glioma line; assay: as above
Summary of the method: as §1

DIPGX37 [9] = H3.3 K27M diffuse intrinsic pontine glioma line; assay: as above
Summary of the method: as §1

SUDIPGXIX [10] = diffuse intrinsic pontine glioma line; assay: as above
Summary of the method: as §1

HGGX42 [11] = assay: EC50 (inflection of fitted growth-inhibition curve) (log10 M)
Summary of the method: as §1

SUDIPGIV [12] = assay: as above
Summary of the method: as §1

DIPGX7 [13] = assay: as above
Summary of the method: as §1

SUDIPGXIII [14] = assay: as above
Summary of the method: as §1

DIPGX29 [15] = assay: as above
Summary of the method: as §1

SUDIPGXXI [16] = assay: as above
Summary of the method: as §1

DIPGX9 [17] = assay: as above
Summary of the method: as §1

HGGX39 [18] = assay: as above
Summary of the method: as §1

DIPGX37 [19] = assay: as above
Summary of the method: as §1

SUDIPGXIX [20] = assay: as above
Summary of the method: as §1

HGGX42 [21] = assay: area under dose-response curve of % growth inhibition (log2 RLU vs DMSO / staurosporine), 1e-11 to 1e-4 M (% x log10 M); higher = more growth inhibition
Summary of the method: (§2)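 On 1% Geltrex-coated 384-well plates, patient-derived pHGG/DIPG cell lines and astrocytes were treated in triplicate across 10 threefold dilutions (mean top concentration 35 μM) for 7 days, with iAstro treated for 3 days, at 37 °C, 5% CO2. Log2-transformed CellTiter-Glo luminescence was normalised per plate to % activity between solvent and positive controls. Area under the curve was obtained by the trapezoid rule from a log-logistic fit, or from a smoothing spline when that fit failed.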

SUDIPGVI [22] = diffuse intrinsic pontine glioma line; assay: as above
Summary of the method: as §2

SUDIPGIV [23] = assay: as above
Summary of the method: as §2

HABS = astrocyte control; assay: as above
Summary of the method: as §2

DIPGX7 [24] = assay: as above
Summary of the method: as §2

HGGX6 [25] = H3.3 G34R paediatric high-grade glioma line; assay: as above
Summary of the method: as §2

SUDIPGXIII [26] = assay: as above
Summary of the method: as §2

DIPGX29 [27] = assay: as above
Summary of the method: as §2

SUDIPGXXI [28] = assay: as above
Summary of the method: as §2

DIPGX9 [29] = assay: as above
Summary of the method: as §2

HGGX39 [30] = assay: as above
Summary of the method: as §2

DIPGX37 [31] = assay: as above
Summary of the method: as §2

SUDIPGXIX [32] = assay: as above
Summary of the method: as §2

iAstro = astrocyte control; assay: as above
Summary of the method: as §2

SUDIPGXVII [33] = diffuse intrinsic pontine glioma line; assay: as above
Summary of the method: as §2

HGGX2 = paediatric high-grade glioma line; assay: as above
Summary of the method: as §2

SUDIPGVI [34] = assay: maximal growth inhibition (yFin) relative to DMSO / staurosporine; higher = more efficacious
Summary of the method: as §1

HGGX6 [35] = assay: as above
Summary of the method: as §1

SUDIPGXVII [36] = assay: as above
Summary of the method: as §1

SUDIPGVI [37] = assay: EC50 (inflection of fitted growth-inhibition curve) (log10 M)
Summary of the method: as §1

HGGX6 [38] = assay: as above
Summary of the method: as §1

SUDIPGXVII [39] = assay: as above
Summary of the method: as §1

Structure (SMILES) | maximal growth inhibition (SUDIPGXIII [4]) | EC50 (log10 M) (SUDIPGXIII [14]) | area under dose-response curve (HGGX42 [21]) | area under dose-response curve (SUDIPGVI [22]) | area under dose-response curve (SUDIPGIV [23]) | area under dose-response curve (HABS) | area under dose-response curve (DIPGX7 [24]) | area under dose-response curve (HGGX6 [25]) | area under dose-response curve (SUDIPGXIII [26]) | area under dose-response curve (DIPGX29 [27]) | area under dose-response curve (SUDIPGXXI [28]) | area under dose-response curve (DIPGX9 [29]) | area under dose-response curve (HGGX39 [30]) | area under dose-response curve (DIPGX37 [31]) | area under dose-response curve (SUDIPGXIX [32]) | area under dose-response curve (iAstro) | area under dose-response curve (SUDIPGXVII [33]) | area under dose-response curve (HGGX2) | further results
Cn1cnc([N+](=O)[O-])c1Sc1ncnc2[nH]cnc12 [AZATHIOPRINE] | 21% | -6.03 | 51 | 29 | 60 | 15.3 | 35.7 | 50.7 | 38.7 | 119 | 119 | 52.8 | 80.7 | 87.5 | 42.2 | 6.8 | 37.4 | 49.3 | maximal growth inhibition (HGGX42 [1]): 23.2%; maximal growth inhibition (SUDIPGIV [2]): 34%; maximal growth inhibition (DIPGX7 [3]): 32.3%; maximal growth inhibition (DIPGX29 [5]): 55.9%; maximal growth inhibition (SUDIPGXXI [6]): 43.4%; maximal growth inhibition (DIPGX9 [7]): 27.4%; maximal growth inhibition (HGGX39 [8]): 52.1%; maximal growth inhibition (DIPGX37 [9]): 53.7%; maximal growth inhibition (SUDIPGXIX [10]): 25.4%; EC50 (log10 M) (HGGX42 [11]): -6.39; EC50 (log10 M) (SUDIPGIV [12]): -5.75; EC50 (log10 M) (DIPGX7 [13]): -5.08; EC50 (log10 M) (DIPGX29 [15]): -6.11; EC50 (log10 M) (SUDIPGXXI [16]): -6.73; EC50 (log10 M) (DIPGX9 [17]): -5.87; EC50 (log10 M) (HGGX39 [18]): -5.65; EC50 (log10 M) (DIPGX37 [19]): -5.6; EC50 (log10 M) (SUDIPGXIX [20]): -6.06
CC(C)C[C@H](NC(=O)[C@H](Cc1ccccc1)NC(=O)c1cnccn1)B(O)O [BORTEZOMIB] | 96.5% | -9.99 | 312 | 499 | 581 | 506 | 575 | 347 | 491 | 287 | 634 | 571 | 455 | 493 | 568 | 461 | 392 | 450 | maximal growth inhibition (SUDIPGVI [34]): 95.6%; maximal growth inhibition (HGGX6 [35]): 91.4%; maximal growth inhibition (SUDIPGXVII [36]): 91.2%; EC50 (log10 M) (SUDIPGVI [37]): -9.92; EC50 (log10 M) (HGGX6 [38]): -7.84; EC50 (log10 M) (SUDIPGXVII [39]): -8.34

Reference: the supplement of paper PMC8253809
